For one assay, the system named is GL261 tumor bearing mice. Kind of assay: GL261 glioma model: tumor lysate vaccine +/- antagonist, tumor growth by imaging and survival. Format: in vivo, C57BL/6 mice. To be noted: for Tumor growth: tumor lysate vaccine + antagonist vs tumor lysate alone or saline, weekly imaging; for Survival: GL261 glioma model, tumor lysate vaccine + antagonist. As to the method: FIGS. 4A-4C. FIG. 4A) GL261 tumor bearing mice were inoculated with 50 μg of antagonist 6059 one day prior to vaccination with tumor lysate (65 μg)+/−the antagonist 6059 (50 μg). FIG. 4B) Mice were imaged weekly for tumor growth. The following groups were studied: saline (1), tumor lysate (2), and tumor lysate+6059 (3). FIG. 4C) Percent survival post inoculation for saline (1), tumor lysate (2), and tumor lysate+6059 (3) groups.
FIGS. 5A-5B. FIG. 5A) GL261 tumor bearing mice were inoculated with 10 μg of 6059 on day 2 into the tumor site then with 50 μg of antagonist 6059 one day prior to vaccination with tumor lysate (65 μg)+the antagonist 6059 (50 μg). FIG. 5B) Mice were imaged weekly for tumor growth. The following groups were studied: saline (1), tumor lysate+6059 (2), and CNS+tumor lysate+6059 (3) groups.
Whether vaccination with CD200R antagonists could enhance the survival of tumor-bearing mice was also studied. […] GL261 tumor bearing mice were vaccinated weekly with saline, tumor lysates (TL) or tumor lysates+an antagonist (4004, 4013, 6059).
Tumor-bearing mice were inoculated in the brain with 10 μg of the inhibitor 6059 at the same coordinates at which the tumor was injected two days previously. This was followed by weekly injections of tumor lysate+inhibitor (FIGS. 5A-5B).
(§1) Tumors were implanted into female C57BL/6 mice (6-8 wk old) (Jackson Laboratory) and maintained in a pathogen-free facility according to the guidelines of the University of Minnesota Animal Care and Use Committee. The GL261 orthotopic transplant model was established in C57BL/6 (B6) mice by inoculation with 15,000 GL261-Luc^+ cells in 1 μl of saline. Tumors were implanted stereotactically into the right striatum; coordinates were 2.5 mm lateral, 0.5 mm anterior of bregma, and 3 mm deep from the cortical surface of the brain^19. Tumor burden was determined by bioluminescent imaging. Light emitted from the tumors was quantified using Living Image software (Xenogen) and expressed as photons per second per centimeter squared per steradian (p/s/cm^2/sr). GL261 cells for tumor lysate vaccines were cultured in neural stem cell media consisting of DMEM/F12 (1:1) with L-glutamine, sodium bicarbonate, penicillin/streptomycin (100 U/ml), B27 and N2 supplements (Life Technologies), and 0.1 mg/ml Normocin (Invivogen). Cultures were maintained at 5% 02 and supplemented with 20 ng/ml EGF and FGF semiweekly (R&D Systems, Minneapolis, Minn.). […] Mice were euthanized when tumors reached 1000 mm^3. […] Tumor cells used to establish both models were cultured in DMEM containing 10% FBS, penicillin/streptomycin (100 U/ml), and 0.1 mg/ml Normocin (Invivogen) in atmospheric oxygen.
Tumor lysates were prepared by dissociating tumor cells with non-enzymatic dissociation solution (Sigma). Cells were then washed 3 times with PBS, re-suspended in 500 μL PBS, and frozen overnight at −80° C. Cells were then lysed by five freeze/thaw cycles of freezing in liquid nitrogen and thawing in a 55° C. water bath. Cell debris was pelleted by centrifugation at 14,000 RCF, and the protein concentration of the supernatant was determined using a Bradford assay. Lysates were stored at −80° C. until use. Each vaccine was prepared on the day of vaccination and consisted of 65 μg of protein tumor lysate and 10 μg Poly:ICLC (Oncovir, Inc.), with or without 50 μg of the 6059 peptide antagonist, in a final volume of 100 μL injected intradermally in the back of the neck. For survival studies, vaccines were administered weekly starting three days post-tumor implantation for a total of 6 doses. In T cell priming experiments, CD8 T-cell priming experiments, animals were vaccinated intradermally on four consecutive days with 100 μg Ovalbumin (OVA) and 10 μg Poly:ICLC, and once more on day eleven^19.

Another assay relates to EMT6 tumor bearing mice. The experiment in a line: EMT6 breast carcinoma model: tumor lysate + CpG +/- competitive inhibitor, survival. Format: in vivo, BALB/c mice. As to the method: FIG. 6. Percent survival of mice inoculated with 1×10^6 EMT6 cells. To determine if our competitive inhibitors worked in other tumor models, mice were inoculated in the fat pad with 1×10^6 EMT6 cells. Specifically, mice were vaccinated with 65 μg of EMT6 tumor lysates+50 μg of adjuvant CpG and 50 μg of different completive inhibitors (6059, 4004, 4013 and 6061) and monitored for survival. Saline and tumor lysate+adjuvant CpG were used as controls.
FIGS. 19A-19B. Select CD200 antagonists enhance survival. (FIG. 19A) EMT6 tumor bearing mice were vaccinated with tumor lysate, CpG+/−CD200 antagonist 4004, 4013 or 6059. […] Log-rank analysis was used for survival.
as §1

The subject of assay [1] is naïve splenocytes pulsed with purified CD200 protein. The experiment in a line: Naive splenocytes pulsed with purified CD200 +/- CD200R antagonist: MDSC expansion and arginase-I. Type of assay: cell-based. How it is done: FIGS. 17A-17B. CD200R antagonist blocks MDSC expansion and tumor suppressive effects. (FIG. 17A) Murine glioma GL261 was incubated with naïve splenocytes in a trans-well plate+/−CD200R antagonist and analyzed for MDSC expansion and cytokine production. (FIG. 17B) Naïve splenocytes were pulsed with purified CD200+/−CD200R antagonist and analyzed for MDSC expansion and arginase-I production. Error bars are ±SEM, statistical significance was determined by one-way ANOVA, post hoc analysis by Dunn's multiple comparison test, *p<0.05, ** p<0.001.
Spleens were harvested homogenized in RPMI media containing 10% FBS, penicillin/streptomycin (100 U/ml), and 0.1 mg/ml Normocin (Invivogen). Cells were then filtered using a 70-micron filter, centrifuged, and resuspended in 5 ml of Ammonium-Chloride-Potassium buffer and incubated for 5 minutes at room temperature to lyse RBCs. […] Following 24 h incubation, CD200R antagonist peptide 6059 was added to the appropriate wells, incubated for 20 min prior to adding 5 μg of purified CD200 protein (Sino Biological) and incubated for a further 72 hrs, harvested and analyzed for anti-CD11b and […] population using an LSR II flow cytometer. […] Following incubation, 50 μl culture supernatant was analyzed for IFN-γ using a flow cytometric bead array according to the manufacturer's protocol (BD Biosciences). […]

Results on one sequence are retold here after patent US10576145B2, “CD200 inhibitors and methods of use thereof” (REGENTS OF THE UNIVERSITY OF MINNESOTA, priority 2014, dated 2020).

Entries after “also recorded” stand apart in the source; their conditions may differ.

Regarding NTIGDGGCY [Antagonist 6059], the “Tumor growth after inoculation of the inhibitor into the CNS tumor site” value in the assay on GL261 tumor bearing mice (GL261, 10 μg in the brain on day 2, then tumor lysate + inhibitor) was “Tumor growth was delayed; also recorded: further suppressed tumor growth”. In addition, the “Survival enhancement / survival benefit” value with GL261 tumor bearing mice (GL261, tumor lysate + antagonist) was determined as 30%. The Tumor growth result is “tumors grow faster in mice vaccinated with saline or tumor lysate alone compared to mice vaccinated with tumor lysate plus an antagonist; also recorded: slowed tumor growth” in the assay with GL261 tumor bearing mice (GL261) and “statistically significant inhibition of tumor growth” in the assay with GL261 tumor bearing mice (GL261, listed as CD200R antagonist). Further, the results for the Survival result in the assay on GL261 tumor bearing mice, in the assay on GL261 tumor bearing mice (listed as CD200R antagonist) and with EMT6 tumor bearing mice were “increased survival benefit; also recorded: enhancing survival”, “enhanced survival benefit” and “results translated to a breast carcinoma (EMT6) model; also recorded: significantly extended survival benefit”, respectively. Also, in assay [1], the “CD200 induced arginase-I secretion” value is on record as “blocked CD200 induced arginase-I secretion”. Besides, in assay [1] (pre-incubation with antagonist), the “CD200 induced MDSC expansion” value is reported as “significantly blocked CD200 induced MDSC expansion”.
